Measurements taken from patent US8377435B2, “Antibody induced cell membrane wounding” (The Board of Trustees of the Leland Stanford Junior …, priority 2004, dated 2013).
Several values for one entry are separate records, joined by “and”; a condition that tells them apart may be missing. Identical values can stand only once.

Experiments:
Type in all cases: cell-based, human
Nalm-6 cells = assay: Cell viability assay using PI staining and forward scatter, Nalm-6; conditions: for cell viability: caspase inhibitors 10 μM 2 hr at 37° C before treatment with mAb 216; for viability (percent viable cells): jasplakinolide 3 μgs/ml or cytochalasin 5 μgs/ml 2 hr at 37° C
Method: The integrity of the plasma membrane was assessed by the ability of cells to exclude propidium iodide (PI, Sigma, St. Louis, Mo.). The level of PI incorporation was quantitated by flow cytometry on FACScan (Becton-Dickinson, San Jose Calif.) interfaced with VersatermPro and FlowJo software at Stanford's FACS facility. PI-negative cells with normal size as measured by forward scatter signals were considered live cells.
Briefly, cells were treated as specified in each experiment and resuspended in PBS with 3% FCS and 10 μgs/ml of PI. In experiments where toxicity was evaluated in Ca-free medium, cells were resuspended in appropriate media with or without calcium to which 10 μgs/ml PI was added. Since previous studies have shown that mAb 216-mediated toxicity is remarkably […] at lower temperatures (Bhat, N. M., et al. (1996) Clin. Exp. Immunol 105, 183), precautions were taken to keep all media and cells at 37° C. and the centrifuge at room temperature.
Cytochalasin was obtained from Sigma and jasplakinolide was obtained from Molecular Probes (Eugene, Oreg.). Caspase inhibitors, Ac-IETD-CHO and Ac-DEVD-CHO were obtained from PharMingen (San Diego, Calif.). Nalm-6 cells (1×10^6 cells/ml) were treated with jasplakinolide (3 μgs/ml), cytochalasin (5 μgs/ml), or caspase inhibitors (10 μM) for 2 hr at 37° C. before treatment with mAb 216. Control samples with equivalent amounts of DMSO were set in parallel. Cells were then exposed to 25 μg of mAb 216 or control Ab and analyzed by flow cytometry.
Since exocytosis of lysosomes is known to be a calcium dependent phenomenon (Miyake, K., and P. L. McNeil (1995) J. Cell Biol. 131, 1737; Bi, G. Q., et al. (1995) J. Cell Biol. 131, 1747), membrane wounding by mAb 216 and repair of the wound was tested in calcium free and normal calcium conditions. The cell viability of Nalm-6 cells when treated with two VH4-34 encoded mAbs, mAb 216 at 50, 25 and 12.5 ng/ml concentrations, and Y2K at 50 ng/ml, was tested in the presence of media with and without calcium.
Brefeldin-A was obtained from Sigma. Nalm-6 cells (1×10^6 cells/ml) were treated with BFA (25 μg/ml) for 2 hr at 37° C. before treatment with mAb 216. Control samples with equivalent amounts of DMSO were set in parallel. Cells were then exposed to 25 μg of mAb 216 or control Ab and analyzed by flow cytometry.
The in vitro cytotoxicity of mAb 216 to Nalm-6 cells was evaluated using PI staining and viability assessment (percent live cells) as a function of the amount of mAb 216 present. The amount of mAb 216 needed to achieve 50% and 80% viability in Nalm-6 cells with and without a crosslinking agent (a secondary mAb, e.g., anti-human lambda) is shown in Table 1, expressed in nanograms antibody required to achieve the indicated level of cytotoxicity, as determined by PI entry into cells.

Nalm 6 = assay: In vitro cytotoxicity of mAb216 in combination with chemotherapeutic agents, Nalm 6; conditions: for Live cells: Nalm 6, 48 h
Method: (§1) Three cell lines which have been derived from ALL blasts of different genotype and phenotype, Nalm 6, REH, and SUPB15, were incubated with mAb 216 alone or in combination with vincristine (VCR), for 48 hours at 37° C.
(§2) In vitro cytotoxicity of mAb216 in combination with single chemotherapeutic agents was tested. Three cell lines which have been derived from ALL blasts of different genotype and phenotype, Nalm 6, REH, and SUPB15, were incubated with mAb 216 alone or in combination with vincristine (VCR), daunorubicin (DNR), or L-asparaginase (ASPR).

REH = assay: In vitro cytotoxicity of mAb216 in combination with chemotherapeutic agents, REH; conditions: 48 h
Method: as §1, §2

SUP B15 = assay: In vitro cytotoxicity of mAb216 in combination with chemotherapeutic agents, SUP B15; conditions: SUP B15, 48 h
Method: as §1, §2

C[C@H]1CCC/C=C/[C@@H]2C[C@H](O)C[C@H]2[C@H](O)/C=C/C(=O)O1 [BFA, Brefeldin A]
viability of cells (Nalm-6 cells; BFA 25 μg/ml 2 hr at 37° C, then control antibodies): no effect on the viability

Ac-DEVD-CHO
cell viability (Nalm-6 cells): did not alter cell viability

cytochalasin
viability (percent viable cells) (Nalm-6 cells; then control antibodies): did not show a decrease in viability

C/C1=C\[C@H](C)C[C@H](C)OC(=O)C[C@H](c2ccc(O)cc2)NC(=O)[C@@H](Cc2c(Br)[nH]c3ccccc23)N(C)C(=O)[C@H](C)NC(=O)[C@@H](C)C1 [jasplakinolide]
viability (percent viable cells) (Nalm-6 cells; then control antibodies): did not show a decrease in viability

Ac-IETD-aldehyde
cell viability (Nalm-6 cells): did not alter cell viability

CC[C@]1(O)C[C@H]2CN(CCc3c([nH]c4ccccc34)[C@@](C(=O)OC)(c3cc4c(cc3OC)N(C=O)[C@H]3[C@@](O)(C(=O)OC)[C@H](OC(C)=O)[C@]5(CC)C=CCN6CC[C@]43[C@@H]65)C2)C1 [VCR, Vincristine]
Live cells (Nalm 6; VCR 0.2 ng/ml): 13 × 10^5
Live cells (Nalm 6; VCR 2 ng/ml): 5 × 10^5
cell death due to treatment with vincristine alone (Nalm 6; vincristine 0.2 ng/ml, 48 hours at 37° C): no cell death occurred
live cell count (REH; VCR 2 ng/ml): 4.2 × 10^5 and 7.7 × 10^5
Live cells × 10^5 (SUP B15; VCR 2 ng/ml): 2.8 × 10^5

COc1cccc2c1C(=O)c1c(O)c3c(c(O)c1C2=O)C[C@@](O)(C(C)=O)C[C@@H]3O[C@H]1C[C@H](N)[C@H](O)[C@H](C)O1 [DNR, Daunorubicin]
Live cells (Nalm 6; DNR 5 ng/ml): 4.3 × 10^5
Live cells × 10^5 (SUP B15; DNR 4 ng/ml): 0.44 × 10^5

B1: Asparaginase (protein, UniProt P00805 23-348, looked up)
L-asparaginase 2: LPNITILATGGTIAGGGDSATKSNYTVGKVGVENLVNAVPQLKDIANVKGEQVVNIGSQDMNDNVWLTLAKKINTDCDKTDGFVITHGTDTMEETAYFLDLTVKCDKPVVMVGAMRPSTSMSADGPFNLYNAVVTAADKASANRGVLVVMNDTVLDGRDVTKTNTTDVATFKSVNYGPLGYIHNGKIDYQRTPARKHTSDTPFDVSKLNELPKVGIVYNYANASDLPAKALVDAGYDGIVSAGVGNGNLYKSVFDTLATAAKTGTAVVRSSRVPTGATTQDAEVDDAKYGFVASGTLNPQKARVLLQLALTQTKDPQQIQQIFNQY
notes: L-asparaginase, chemotherapeutic enzyme
Live cells (Nalm 6; ASPR 0.8 U/ml): 9.2 × 10^5
live cell count (REH; ASPR 0.8 U/ml): 6.2 × 10^5
Live cells × 10^5 (SUP B15; ASPR 0.8 U/ml): 3 × 10^5
